Source: PubChem BioAssay AID1918932 (Molecular Pharmacology Branch, DTP, NCI, 2023)

Test system: 171881-019-R-J1-PDC complex spheroid viability
Experiment: Anticancer human tumor 171881-019-R-J1-PDC patient-derived invasive breast carcinoma cell line growth inhibition
Settings: for IC50: curve of first compound; for viability, T/C: stronger effect = lower value
Description: Multicellular complex tumor spheroid response to LSD1 Inhibitor Iadademstat in combination with a variety of drugs and investigational agents in selected tumor cell lines
The current study was undertaken to assess response to LSD1 inhibitors in combination with standard-of-care drugs and investigational agents in solid tumor complex spheroid models as well as in the K-562 leukemia. Complex spheroids include a stromal component modeled by human endothelial cells (HUVEC) and fibroblasts modeled by human mesenchymal stem cells (MSCs). The concentration ranges selected for each drug and investigational agent were based upon clinically achievable concentrations if the clinical Cmax of the agent was known.
Compounds. The drugs and investigational agents used in this study are listed on Table 1. All of the agents used, including staurosporine (NSC755774) and gemcitabine (NSC613327), were obtained from the Developmental Therapeutics Program, NCI. FDA-approved anticancer drugs are available from the NCI at http://dtp.nci.nih.gov/branches/dscb/oncology_drugset_explanation.html. Drugs and investigational agents were >95% pure by proton nuclear magnetic resonance (NMR) and liquid chromatography/mass spectrometry (LC/MS). Stock solutions were prepared at 400x in DMSO, stored at -70 degrees C, and diluted in fresh medium prior to their use. The final concentration of DMSO in cell culture wells never exceeded 0.25% (v/v). The FDA-approved anticancer drug set is available from the Developmental Therapeutics Program at https://dtp.cancer.gov/organization/dscb/obtaining/available_plates.htm. All drugs and investigational agents were tested over a range starting from a high concentration at or near the clinical Cmax and decreasing in half-log increments. If the clinical Cmax for an agent had not been determined, the highest concentration tested was 10 microM.
Cell Lines. The patient-derived cancer cell (PDC) lines: 292921-168-R-J2-PDC, K24384-001-R-PDC, and 521955-158-R2-J5-PDC pancreatic carcinomas, 556581-035-R-J1 ovarian carcinoma, 324938-238-R-J1-PDC, 855422-203-R-J1-PDC and 883617-216-R-J1-PDC urothelial bladder carcinomas, 743489-274-T-PDC renal cell carcinoma, 138582-R-J1 Merkel cell tumor, K60290-347-R-J1 and K57222-313-R-J1-PDC glioblastomas, 653999-131-R-J2-PDC, LG0703-F948-PDC, and 349418-098-R-PDC non-small cell lung carcinomas, 885512-296-R-J2-PDC, 171881-019-R-J1-PDC breast carcinomas and 186277-243-T-J2-PDC and 233499-124-R-J2-PDC colon carcinomas were obtained from the NCI Patient-Derived Models Repository (PDMR, https://pdmr.cancer.gov). The established cell lines NCI/ADR-RES (RRID:CVCL_14520 and OVCAR-5 (RRID:CVCL_1628) ovarian carcinomas, 786-O (RRID:CVCL_1051) and A498 (RRID:CVCL_A498) renal cell carcinoma, NCI-H211 (ATCC, cat. CRL-5824; RRID:CVCL_1529), NCI-H196 (ATCC, cat. CRL-5823, RRID:CVCL_1509), SW 1271 (ATCC, cat. CRL-2177, RRID:CVCL_1716) and NCI-H1876 (ATCC, cat. CRL-5902, RRID:CVCL_1503) small cell lung carcinomas, MDA-MB-231 (RRID:CVCL_0062) and MDA-MB-468 (RRID:CVCL_0419)breast carcinomas (10-12). Pooled donor human umbilical vein endothelial cells (HUVEC, Lonza, cat. CC-2519) and human mesenchymal stem cells (hMSC, Lonza, cat. PT-2501) were purchased from Lonza (Walkersville, MD).
Cell Culture. All cells were maintained in an incubator at 37 degrees C and 5% CO2 with 95% humidity. The PDC lines were cultured according to standard operating procedures established by the NCI PDMR (https://pdmr.cancer.gov). Briefly all PDCs were thawed and cultured in Matrigel-coated flasks prepared with a working solution of 1X Ham's F-12 nutrient mix, without supplementation (Invitrogen, Waltham, MA, cat. 11765054), 100 U/mL penicillin-streptomycin (Invitrogen, cat. 15140122), and 2.5% Matrigel (Corning Inc., Corning, NY, cat. 354248) for the first three passages. […]
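Note: spheroids exposed to agents for 7 days after 3 days growth.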

CC(C)c1c(-c2ccccc2)nc2c(C#N)c[nH]n2c1=O + NC1CCC(NC2CC2c2ccccc2)CC1 gave an IC50 (second compound 0.1 µM) of over 10000 nM, an IC50 (second compound 0.316 µM) of over 10000 nM and an IC50 (second compound 1 µM) of over 10000 nM. For the same molecule, the IC50 (second compound 3.16 µM) was over 10000 nM, the IC50 (second compound 10 µM) was over 10000 nM and the viability, T/C (second compound 0.1 µM, first compound 0.0316 µM) was 89.7%. For the same molecule, the viability, T/C (second compound 0.1 µM, first compound 0.1 µM) was 75.8%, the viability, T/C (second compound 0.1 µM, first compound 0.316 µM) was 82.7% and the viability, T/C (second compound 0.1 µM, first compound 1 µM) was 92.2%. The viability, T/C (second compound 0.1 µM, first compound 3.16 µM) was 82.9%, the viability, T/C (second compound 0.1 µM, first compound 10 µM) was 97.8% and the viability, T/C (second compound 0.316 µM, first compound 0.0316 µM) was 90.7%. The viability, T/C (second compound 0.316 µM, first compound 0.1 µM) was 93.3%, the viability, T/C (second compound 0.316 µM, first compound 0.316 µM) was 82.6% and the viability, T/C (second compound 0.316 µM, first compound 1 µM) was 96.1%. The viability, T/C (second compound 0.316 µM, first compound 3.16 µM) was 94%, the viability, T/C (second compound 0.316 µM, first compound 10 µM) was 91.6% and the viability, T/C (second compound 1 µM, first compound 0.0316 µM) was 93.8%. The viability, T/C (second compound 1 µM, first compound 0.1 µM) was 81.3%, the viability, T/C (second compound 1 µM, first compound 0.316 µM) was 85.5% and the viability, T/C (second compound 1 µM, first compound 1 µM) was 100%. For the same molecule, the viability, T/C (second compound 1 µM, first compound 3.16 µM) was 81.5%, the viability, T/C (second compound 1 µM, first compound 10 µM) was 91.2% and the viability, T/C (second compound 3.16 µM, first compound 0.0316 µM) was 96.1%. It also gave a viability, T/C (second compound 3.16 µM, first compound 0.1 µM) of 90.5%, a viability, T/C (second compound 3.16 µM, first compound 0.316 µM) of 94.3% and a viability, T/C (second compound 3.16 µM, first compound 1 µM) of 80.3%. For the same molecule, the viability, T/C (second compound 3.16 µM, first compound 3.16 µM) was 101%, the viability, T/C (second compound 3.16 µM, first compound 10 µM) was 97.3% and the viability, T/C (second compound 10 µM, first compound 0.0316 µM) was 87.2%. It also gave a viability, T/C (second compound 10 µM, first compound 0.1 µM) of 90.4%, a viability, T/C (second compound 10 µM, first compound 0.316 µM) of 77.3% and a viability, T/C (second compound 10 µM, first compound 1 µM) of 92.6%. The viability, T/C (second compound 10 µM, first compound 3.16 µM) was 93.4% and the viability, T/C (second compound 10 µM, first compound 10 µM) was 90.4%.

Nc1ncn(C2CC(O)C(CO)S2)c(=O)n1 (stereo not given) + NC1CCC(NC2CC2c2ccccc2)CC1 showed an IC50 (second compound 0.1 µM) of 193 nM, an IC50 (second compound 0.316 µM) of 175 nM and an IC50 (second compound 1 µM) of 192 nM. It also gave an IC50 (second compound 3.16 µM) of 202 nM, an IC50 (second compound 10 µM) of 229 nM and a viability, T/C (second compound 0.1 µM, first compound 0.000949 µM) of 85.7%. It also gave a viability, T/C (second compound 0.1 µM, first compound 0.003 µM) of 82.5%, a viability, T/C (second compound 0.1 µM, first compound 0.00949 µM) of 94.3% and a viability, T/C (second compound 0.1 µM, first compound 0.03 µM) of 105%. It also gave a viability, T/C (second compound 0.1 µM, first compound 0.0949 µM) of 70.9%, a viability, T/C (second compound 0.1 µM, first compound 0.3 µM) of 37.2% and a viability, T/C (second compound 0.316 µM, first compound 0.000949 µM) of 91.2%. It also gave a viability, T/C (second compound 0.316 µM, first compound 0.003 µM) of 75.8%, a viability, T/C (second compound 0.316 µM, first compound 0.00949 µM) of 90.9% and a viability, T/C (second compound 0.316 µM, first compound 0.03 µM) of 116%. It also gave a viability, T/C (second compound 0.316 µM, first compound 0.0949 µM) of 66.4%, a viability, T/C (second compound 0.316 µM, first compound 0.3 µM) of 35.7% and a viability, T/C (second compound 1 µM, first compound 0.000949 µM) of 73.4%. It also gave a viability, T/C (second compound 1 µM, first compound 0.003 µM) of 84%, a viability, T/C (second compound 1 µM, first compound 0.00949 µM) of 94.8% and a viability, T/C (second compound 1 µM, first compound 0.03 µM) of 101%. For the same molecule, the viability, T/C (second compound 1 µM, first compound 0.0949 µM) was 66.8%, the viability, T/C (second compound 1 µM, first compound 0.3 µM) was 39.3% and the viability, T/C (second compound 3.16 µM, first compound 0.000949 µM) was 85.1%. For the same molecule, the viability, T/C (second compound 3.16 µM, first compound 0.003 µM) was 87.5%, the viability, T/C (second compound 3.16 µM, first compound 0.00949 µM) was 111% and the viability, T/C (second compound 3.16 µM, first compound 0.03 µM) was 109%. It also gave a viability, T/C (second compound 3.16 µM, first compound 0.0949 µM) of 66.6%, a viability, T/C (second compound 3.16 µM, first compound 0.3 µM) of 41.3% and a viability, T/C (second compound 10 µM, first compound 0.000949 µM) of 85.4%. It also gave a viability, T/C (second compound 10 µM, first compound 0.003 µM) of 90.8%, a viability, T/C (second compound 10 µM, first compound 0.00949 µM) of 98.8% and a viability, T/C (second compound 10 µM, first compound 0.03 µM) of 93.8%. The viability, T/C (second compound 10 µM, first compound 0.0949 µM) was 69.1% and the viability, T/C (second compound 10 µM, first compound 0.3 µM) was 44.1%.
